According to article PMC11302729, “Repurposing Hsp90 inhibitors as antimicrobials targeting two-component systems identifies compounds leading to loss of bacterial membrane integrity” (Microbiology Spectrum, 2024):
Values after ≈ are worked out from the molar mass of the structure shown. Values joined by “and” are separate entries in the source; they are usually repeats but may differ in a detail not shown here. Equal values may be shown once. Read-outs that look alike come from different tables or passages of the source. No end group written: not given here.

Key:
Format in all cases: cell-based
[1] = tested on: Escherichia coli ATCC 25922; assay: MIC (microdilution) against E. coli; conditions: Escherichia coli
Experimental: (§1) Staphylococcus aureus str. Newman, Enterococcus faecalis vanA (strain E0155), Enterococcus faecium vanA (strain E1654), Escherichia coli ATCC 25922, Escherichia coli D21f2 with a truncated LPS barrier, Escherichia coli JW5503 (ΔtolC) ([49]), Pseudomonas aeruginosa ATCC 27853, and Pasteurella haemolytica ATCC 29701 were grown in Mueller-Hinton Broth (MHB) (Oxoid, Basingstoke, UK) and incubated at 37°C.
(§2) The minimal inhibitory concentration was determined using the microdilution method following the guidelines of the European Committee on Antimicrobial Susceptibility Testing ([50]). Briefly, a series of twofold dilutions in MHB of each compound were made in a 96-well plate, with final concentrations ranging from 50 to 0.39 µg/mL in 100 µL final volume per well. A hundred microliters of 1:100 dilution of an overnight culture of the correspondent bacteria in MHB was added to each well. Plates were incubated for 18 hours at 37°C. MIC was recorded as the lowest concentration where no growth was detected as measured by optical density at 600 nm (OD600) using Spectramax M5 (Molecular Devices LLC, San Jose, CA, USA). […] Wells containing bacteria with or without 1% DMSO and medium alone were included as controls in every plate.

[2] = tested on: HEK293 cells; assay: in vitro; conditions: LC50/MIC (HEK293 / S. aureus)
Experimental: (§3) HEK293 cells and the human hepatocellular carcinoma cells (HepG2) were routinely cultured in 75-cm^2 culture flasks (Corning Incorporated) on high-glucose Dulbecco’s modified Eagle medium (DMEM) containing glutaMax and phenol red (Gibco) supplemented with 1% penicillin/streptomycin (Gibco) and 10% fetal bovine serum (FBS) (Gibco). Cells were maintained at 37°C and 5% CO2.
(§4) Cytotoxicity assays with HEK293 and HepG2 cells were performed in 96-well plates seeded with 5 × 10^4 cells/well and incubated for 24 hours to reach 80%–90% confluency. Exterior wells were filled with only medium to prevent evaporation. Culture medium was removed from the cells, and 100 µL of exposure medium [high-glucose DMEM without phenol red (Gibco)] was added to avoid a potential interaction between FBS components or antibiotics and tested compounds. A twofold dilution series of compounds in exposure medium (range 100–3.2 μg/mL) was made in a separate 96-well plate, and 100 µL of each of these dilutions was added to the assay plates for 24 hours at 37°C in the presence of 5% CO2. Control wells contained cells with DMEM, DMEM + 1% DMSO (vehicle control), or DMEM + 20% DMSO. Wells without cells were also included as negative control. After exposure, the medium was replaced with 100 µL 10% Alamar Blue (Invitrogen) in exposure medium. After 45 min incubation at 37°C and 5% CO2, fluorescence was measured on a Spectramax M5 plate reader at λex = 541 nm, λem = 590 nm. Cell viability compared with the vehicle control was calculated, and inhibition curves for each compound were fitted (non-linear curve fit, four variables, bottom constrained = 0) in Prism 9 (GraphPad Software, San Diego, USA).

[3] = in vitro; conditions: human
Experimental: as §3, §4

[4] = tested on: Pseudomonas aeruginosa ATCC 27853; assay: MIC (microdilution) against P. aeruginosa; conditions: Pseudomonas aeruginosa
Experimental: as §1, §2

[5] = tested on: Enterococcus faecalis vanA (strain E0155); assay: MIC (microdilution) against E. faecalis; conditions: Enterococcus faecalis, read-out: MIC E. faecalis
Experimental: as §1, §2

[6] = tested on: Enterococcus faecium vanA (strain E1654); assay: MIC (microdilution) against E. faecium; conditions: Enterococcus faecium, read-out: MIC E. faecium
Experimental: as §1, §2

[7] = tested on: Staphylococcus aureus str. Newman; assay: Minimal inhibitory concentration (microdilution) against S. aureus; conditions: for MIC S. aureus: Table ST3
Experimental: as §1, §2

[8] = tested on: Pasteurella haemolytica ATCC 29701; assay: MIC (microdilution) against P. haemolytica; conditions: Mannheimia haemolytica, ATCC29701, read-out: MIC P. haemolytica, Table ST1
Experimental: as §1, §2

[9] = tested on: Escherichia coli JW5503 (ΔtolC); assay: MIC (microdilution) against E. coli JW5503; conditions: Escherichia coli, read-out: MIC E. coli JW5503
From the text: (§5) We also tested the inhibitory activity of compounds in two different E. coli mutants: (i) E. coli JW5503 that lacks TolC efflux pumps and (ii) E. coli D21f2 that has a defective LPS inner core increasing permeability of the outer membrane. E. coli D21f2 has a slightly higher susceptibility to DPP compounds than E. coli ATCC25922.
as §1, §2

[10] = tested on: S. aureus str. Newman; assay: Membrane permeability using SYTOX-Green, flow cytometry; conditions: for % FITC stained bacteria 0.5 xMIC: 0.5× MIC; for % FITC stained bacteria 1 xMIC / Loss of membrane integrity: 1× MIC; for Membrane damage: if considered to cause membrane damage to S. aureus
Experimental: S. aureus str. Newman was grown to exponential phase (OD600 = 0.4) in MHB media. […] Nisin (Sigma-Aldrich) and novobiocin (Sigma-Aldrich) were used as positive and negative controls for membrane permeabilization, and stained and unstained untreated controls were also included in each assay. After exposure, samples were centrifuged at 4,000 r.p.m. for 5 min and resuspended in PBS. Bacteria were dyed by adding the fluorescent nuclear stain SYTOX Green (Molecular Probes, Invitrogen) to a final concentration of 0.5 µM and incubating for 5 min in the dark. Samples were centrifuged again and resuspended with PBS to remove unbound stain. Three hundred microliters of each sample was transferred to a clean well in a 96-well clear-bottom plate (Corning Incorporated). Fluorescence was measured in CytoFLEX flow cytometer (Beckman Coulter, Brea, CA, USA) using the green (FITC) channel with the excitation wavelength at 488 nm. Overlay histograms were created with CytExpert Software (Beckman Coulter, Brea, CA, USA).

[11] = tested on: Escherichia coli D21f2 with a truncated LPS barrier; assay: MIC (microdilution) against E. coli D21f2; conditions: read-out: MIC E coli D21f2
From the text: as §5, §1, §2

[12] = ATCC25922, Table ST1, read-out: MIC E. coli
[13] = ATCC27853, Table ST1, read-out: MIC P. aeruginosa
[14] = Staphylococcus aureus, NEWMAN, Fig 2
[15] = Staphylococcus aureus, NEWMAN, Fig 2, value in parentheses
[16] = Table ST3, value in parentheses

Row | Compound | MIC [1, 12] | Selectivity Index [2] | CC50 at 24 h [3] | MIC [4, 13] | MIC [5] | MIC [6] | MIC [7, 14] | MIC [7, 15] | MIC S. aureus [7] | MIC [7, 16] | MIC [8] | MIC [9] | % FITC stained bacteria 0.5 xMIC ([10]; 5 min exposure) | % FITC stained bacteria 1 xMIC ([10]; 5 min exposure) | % FITC stained bacteria 2 xMIC ([10]; 2× MIC, 5 min exposure) | also measured
1 | COc1ccc(-c2[nH]nc(C(F)(F)F)c2-c2ccc(OC)c(OC)c2)c(O)c1 [DPP-19] | > 250 µg/mL | 0.55 | 13.7 µg/mL and 34.6 µM | > 250 µg/mL | 50 µg/mL (≈ 127 µM) | 50 µg/mL (≈ 127 µM) | 25 µg/mL | 63.3 µM | 25 µg/mL (≈ 63.4 µM) | 63.29 µM | > 250 µg/mL | 12.5 µg/mL (≈ 31.7 µM) |  |  |  | 
2 | COc1ccc(-c2[nH]nc(C)c2-c2ccc(Cl)cc2)c(O)c1 [DPP-10] | > 250 µg/mL | 0.93 |  | > 250 µg/mL | 250 µg/mL (≈ 794 µM) | 250 µg/mL (≈ 794 µM) | 25 µg/mL | 79.4 µM | 25 µg/mL (≈ 79.4 µM) | 79.37 µM | 62.5 µg/mL (≈ 199 µM) | 6.25 µg/mL (≈ 19.9 µM) | 28.57% | 37.28% | 40.99% | Membrane damage [10]: YES; MIC [11]: 250 µg/mL (≈ 794 µM)
3 | Oc1ccc(-c2[nH]nc(C(F)(F)F)c2-c2ccccc2)c(O)c1 [DPP-1] | > 250 µg/mL | 0.65 |  | > 250 µg/mL | 12.5 µg/mL (≈ 39 µM) | 12.5 µg/mL (≈ 39 µM) | 6.25 µg/mL | 19.5 µM | 6.25 µg/mL (≈ 19.5 µM) | 19.53 µM | 25 µg/mL (≈ 78.1 µM) | 1.56 µg/mL (≈ 4.87 µM) | 30.46% | 39.72% | 46.63% | Membrane damage [10]: YES
4 | COc1ccc(-c2c(C(F)(F)F)n[nH]c2-c2ccc(O)cc2O)cc1OC [DPP-18] | > 250 µg/mL | 0.45 | 22.8 µg/mL and 60 µM | > 250 µg/mL | 50 µg/mL (≈ 131 µM) | 50 µg/mL (≈ 131 µM) | 50 µg/mL | 132 µM | 50 µg/mL (≈ 131 µM) | 131.58 µM | > 250 µg/mL | 6.25 µg/mL (≈ 16.4 µM) |  |  |  | 
5 | COc1ccccc1-c1c(C(F)(F)F)n[nH]c1-c1ccc(O)cc1O [DPP-16] | > 250 µg/mL | 0.65 | 16.4 µg/mL and 46.7 µM | > 250 µg/mL | 50 µg/mL (≈ 143 µM) | 50 µg/mL (≈ 143 µM) | 25 µg/mL | 71.4 µM | 25 µg/mL (≈ 71.4 µM) | 71.43 µM | 50 µg/mL (≈ 143 µM) | 3.13 µg/mL (≈ 8.94 µM) |  |  |  | 
6 | Oc1cc(OCc2ccccc2)ccc1-c1[nH]nc(C(F)(F)F)c1-c1ccccc1 [DPP-4] | > 250 µg/mL | 4.65 | 7.26 µg/mL and 17.7 µM | > 250 µg/mL | 3.12 µg/mL (≈ 7.6 µM) | 3.12 µg/mL (≈ 7.6 µM) | 1.56 µg/mL | 3.8 µM | 1.56 µg/mL (≈ 3.8 µM) | 3.80 µM | 125 µg/mL (≈ 305 µM) | 6.25 µg/mL (≈ 15.2 µM) | 7.94% | 14.15% | 19.78% | Loss of membrane integrity ([10]; 5 min exposure): did not cause significant loss of membrane integrity; MIC [11]: > 50 µg/mL
7 | CO[C@@H]1[C@@H](OC(N)=O)[C@@H](O)[C@H](Oc2ccc3c(O)c(NC(=O)c4ccc(O)c(CC=C(C)C)c4)c(=O)oc3c2C)OC1(C)C [Novobiocin, reference compound] |  |  |  |  |  |  |  |  |  |  |  |  | 8.28% | 12.62% | 13.17% | Effect on membrane integrity ([10]; 2× MIC, 5 min exposure): no effect on membrane integrity
8 | Nisin: positive control for membrane permeabilization (ITSISLCTPGCKTGALMGCNMKTATCHCSIHVSK; ends and bridges not checked; also: lantibiotic nisin A: dehydrated residues and lanthionine rings not given here; UniProt P13068 24-57, looked up) [reference compound] |  |  |  |  |  |  |  |  |  |  |  |  | 16.37% | 53.32% | 59.41% | 
9 | Cc1n[nH]c(-c2ccc(O)cc2O)c1-c1ccc(Cl)cc1 [DPP-9] | > 250 µg/mL | 0.49 |  | > 250 µg/mL | 25 µg/mL (≈ 83.1 µM) | 25 µg/mL (≈ 83.1 µM) | 25 µg/mL | 83.3 µM | 25 µg/mL (≈ 83.1 µM) | 83.33 µM | 25 µg/mL (≈ 83.1 µM) | 12.5 µg/mL (≈ 41.6 µM) | 38.22% | 41.34% | 43.78% | Membrane damage [10]: YES; MIC [11]: 50 µg/mL (≈ 166 µM)
10 | COc1ccc(-c2c(C(F)(F)F)n[nH]c2-c2ccc(OCc3ccccc3)cc2O)cc1 [DPP-15] | > 250 µg/mL | 3.10 | 9.64 µg/mL and 21.9 µM | > 250 µg/mL | 1.56 µg/mL (≈ 3.54 µM) | 1.56 µg/mL (≈ 3.54 µM) | 3.12 µg/mL | 7.09 µM | 3.12 µg/mL (≈ 7.08 µM) | 7.09 µM | > 250 µg/mL | 3.12 µg/mL (≈ 7.08 µM) | 9.29% | 13.68% | 18.42% | Loss of membrane integrity ([10]; 5 min exposure): did not cause significant loss of membrane integrity
11 | COc1ccc(-c2[nH]nc(C(F)(F)F)c2-c2ccccc2OC)c(O)c1 [DPP-17] |  | 0.50 | 12.6 µg/mL and 34.5 µM |  |  | > 250 µg/mL | 25 µg/mL | 68.5 µM | 25 µg/mL (≈ 68.6 µM) | 68.49 µM | 50 µg/mL (≈ 137 µM) | 6.25 µg/mL (≈ 17.2 µM) |  |  |  | MIC ([1]; ATCC25922, read-out: MIC E. coli): > 250 µg/mL; MIC ([4]; ATCC27853, read-out: MIC P. aeruginosa): > 250 µg/mL; MIC ([5]; 18 h): > 250 µg/mL
